Patent US5585356A, “Matrix metalloproteinase peptides: role in diagnosis and therapy” (priority 1994, dated 1996)
Where no end group is shown, it is not given here.

What was measured:
type IV procollagenase = type IV procollagenase (Homo sapiens, UniProt P08253); details: 10 mM EDTA; 1 mM pAPMA, 37° C.
Protocol: 20 μl aliquots of A2058 melanoma cell conditioned media were activated in the presence of 1.0 mM pAPMA for the indicated times (min). The reactions were stopped by the addition of EDTA to 10 mM and the samples were electrophoresed on a 9% acrylamide gel with or without gelatin. The gelatin containing gels were developed as zymograms after electrophoresis.
Stock solutions of 0.01M p-APMA in 0.05N NaOH were prepared fresh daily. Proenzyme samples were incubated with a final concentration 0.5 or 1.0 mM p-APMA for varying times (0-16 hours) at 37° C. Following incubation, the samples were analyzed directly by NaDodSO4 -PAGE on 9% acrylamide gels containing 0.1% gelatin (gelatin zymogram). Alternatively, the samples were run on 9% NaDodSO4 -PAGE and electroblotted onto Immobilon P membranes (Millipore).

type IV collagenase = target: T1, type IV collagenase (Homo sapiens, UniProt P08253); assay: soluble type IV collagenase assay (3H-type IV collagen degradation); format: biochemical; details: peptide 0.1 mM; purified activated type IV collagenase, pepsinized type IV collagen (FIG. 11)
T1 construct: endogenous in cells; host or cells: human A2058 melanoma cells
T1 sequence (P08253 110-660): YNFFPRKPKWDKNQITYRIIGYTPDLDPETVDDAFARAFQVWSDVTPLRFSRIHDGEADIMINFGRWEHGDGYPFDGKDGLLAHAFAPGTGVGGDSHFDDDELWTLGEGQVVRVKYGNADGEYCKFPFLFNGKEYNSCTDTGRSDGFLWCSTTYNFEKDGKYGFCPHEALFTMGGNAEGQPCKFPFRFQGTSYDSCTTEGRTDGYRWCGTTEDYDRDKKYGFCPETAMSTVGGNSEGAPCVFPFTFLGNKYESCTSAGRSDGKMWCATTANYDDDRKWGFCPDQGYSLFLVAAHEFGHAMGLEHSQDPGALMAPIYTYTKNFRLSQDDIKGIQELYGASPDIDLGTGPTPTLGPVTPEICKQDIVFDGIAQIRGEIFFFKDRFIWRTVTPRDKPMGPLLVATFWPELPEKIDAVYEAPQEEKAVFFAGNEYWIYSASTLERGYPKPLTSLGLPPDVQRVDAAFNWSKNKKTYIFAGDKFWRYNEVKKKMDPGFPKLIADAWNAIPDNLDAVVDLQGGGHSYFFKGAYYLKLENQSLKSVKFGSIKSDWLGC
Protocol: FIG. 11 illustrates the dose dependent inhibition of purified activated type IV collagenase cleavage of pepsinized type IV collagen by the designated synthetic peptides. Peptide TMRKPRCGNPDVAN at a concentration of 0.1 mM inhibits 80% of the enzyme activity.
The procedure for the collagenase assay of this example utilized the following preparation.
1. Place enzyme sample activator (usually 1 mM pAPMA) and test solution in 1.5 ml Eppendorf tube. Combined volume must equal 60 μl. Add 1× collagenase buffer, if necessary. If necessary, preincubate.
2. Prepare type Iv collagen substrate by diluting stock ^3 H-type IV collagen (NEN #NET-931 lot #2511-018) 1:120 with 1× collagenase buffer. Heat to 55° C. for 10 minutes and cool on ice.
3. Add 5 μl of diluted mH-type IV collagen solution to each assay tube. Vortex to mix and incubate at 28° C. for 4 hours.
4. At the end of the incubation period, add 2 μl of carrier BSA solution and 7 μl of TCATAP solution. Vortex mix and allow to stand on ice for at least 10 minutes.
5. Pellet the precipitate by centrifuging in the microfuge for 10 minutes with the speed set at 6. Orient the tubes when placing them in the microfuge in order that the position of the pellet will be known.
6. Immediately after centrifugation, aspirate 55 μl of the supernatant and place in a scintillation vial. Add 5 ml of scintillation cocktail, shake well and count. […]

type IV procollagenase, sequence (P08253 30-660 limits assumed): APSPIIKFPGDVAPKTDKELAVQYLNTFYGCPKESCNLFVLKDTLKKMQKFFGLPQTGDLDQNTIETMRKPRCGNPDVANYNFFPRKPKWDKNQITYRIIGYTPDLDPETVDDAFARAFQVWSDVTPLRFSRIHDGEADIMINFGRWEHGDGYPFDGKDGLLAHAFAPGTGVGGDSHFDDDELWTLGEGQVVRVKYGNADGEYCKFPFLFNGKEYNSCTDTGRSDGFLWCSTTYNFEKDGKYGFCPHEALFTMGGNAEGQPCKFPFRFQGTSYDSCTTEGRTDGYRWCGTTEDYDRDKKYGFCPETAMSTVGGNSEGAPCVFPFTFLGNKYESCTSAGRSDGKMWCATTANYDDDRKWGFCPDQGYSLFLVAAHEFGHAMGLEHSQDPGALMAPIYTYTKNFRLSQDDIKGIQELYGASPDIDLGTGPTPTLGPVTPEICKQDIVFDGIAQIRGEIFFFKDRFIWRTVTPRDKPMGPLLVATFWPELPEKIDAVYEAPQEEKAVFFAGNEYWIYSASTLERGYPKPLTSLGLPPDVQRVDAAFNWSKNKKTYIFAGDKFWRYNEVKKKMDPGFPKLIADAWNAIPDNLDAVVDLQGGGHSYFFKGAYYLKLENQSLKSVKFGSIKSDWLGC

| inhibition of enzyme activity (type IV collagenase) | Compound | conversion of 70 kDa band to 62 kDa form (type IV procollagenase) |
| --- | --- | --- |
|  | O=C(O)CN(CCN(CC(=O)O)CC(=O)O)CC(=O)O [EDTA] | completely inhibited |
| 80% | TMRKPRCGNPDVAN [Peptide 74, TMRKPRCGNPDVAN] |  |
